Results: publication PMC9551036, “A selective and orally bioavailable VHL-recruiting PROTAC achieves SMARCA2 degradation in vivo” (Nature Communications, 2022)
“And” between values parts separate entries of the source, which are not always exact repeats. Identical values can stand only once. “Also recorded” adds a separate entry of the source. Like-named read-outs stand apart in the source and are kept apart here.

Columns and labels:
[1] = Bidirectional permeability measurement in Caco-2 cells; type: in vitro ADME; settings: human
Procedure, shortened: (§1)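 Caco-2 monolayers grown 14–21 days, preincubated 24 h with medium containing 1 µM compound; bidirectional transport sampled up to 2 h, quantified by LC-MS/MS, ± 5 µM zosuquidar (P-gp inhibitor). Papp,AB and Papp,BA from receiver amount, donor C0, area and time; efflux ratio = Papp,BA/Papp,AB (duplicate means). TEER checked per plate.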

P-gp = assay: as above; type: in vitro ADME; settings: human, Caco-2, pH 7.4, with zosuquidar 5 µM; for Papp B→A at 2 h, 1 µM: Modified Caco-2, b to a, + PGPi (Zosuquidar), read-out: Modified Caco-2 Pba + PGPi (Zosuquidar); for Papp A→B at 1 µM: Modified Caco-2 + PGPi (Zosuquidar), read-out: Modified Caco-2 + PGPi (Zosuquidar) Pab
Procedure, shortened: as §1

[2] = Body weight / tolerability in xenograft studies; type: in vivo, mouse
Procedure: (§2) To establish subcutaneous tumours, mice were injected with 5 × 10^6 NCI-H1568 in PBS with 5% FCS or with 1 × 10^7 A549 cells in PBS with 5% FCS. Tumour diameters were measured with a caliper three times a week. The volume of each tumour (in mm^3) was calculated according to the formula [tumour volume = length × diameter^2 × π/6]. To monitor side effects of treatment, mice were inspected daily for abnormalities and body weight was determined daily after the start of treatment. Animals were sacrificed when the tumours reached a size of 1500 mm^3. Mice were randomised into treatment groups when the average tumour size reached ~210–220 mm^3. Group sizes were calculated individually for each tumour model based on tumour growth during model establishment experiments. A power analysis was performed using a sample size calculator (https://www.stat.ubc.ca/~rollin/stats/ssize/n2.html). For both models used in the study, 10 mice per group were used for each experiment. All administrations were dosed with 10 ml/kg (s.c. and oral). Control mice were dosed subcutaneously with 10% HP-β-CD in 50% Ringer solution and orally with 15% HP-β-CD, that means the control mouse treatment was corresponding to the solvent of the compounds. Compound 6 was dosed subcutaneously either in a d1-4 q3d, d6-8 q2d, d11-13 q2d treatment (Treatment 1) or a q3 or 4d treatment (Treatment 2).

SMARCA2 = SMARCA2 (Homo sapiens, UniProt P51531); assay: SMARCA2 IHC in NCI-H1568 xenograft tumours; type: in vivo, mouse; set-up: from tissue; host or cells: subcutaneous NCI-H1568 or A549 xenograft tumours in BomTac:NMRI-Foxn1nu mice
Chain of SMARCA2 (P51531 whole entry): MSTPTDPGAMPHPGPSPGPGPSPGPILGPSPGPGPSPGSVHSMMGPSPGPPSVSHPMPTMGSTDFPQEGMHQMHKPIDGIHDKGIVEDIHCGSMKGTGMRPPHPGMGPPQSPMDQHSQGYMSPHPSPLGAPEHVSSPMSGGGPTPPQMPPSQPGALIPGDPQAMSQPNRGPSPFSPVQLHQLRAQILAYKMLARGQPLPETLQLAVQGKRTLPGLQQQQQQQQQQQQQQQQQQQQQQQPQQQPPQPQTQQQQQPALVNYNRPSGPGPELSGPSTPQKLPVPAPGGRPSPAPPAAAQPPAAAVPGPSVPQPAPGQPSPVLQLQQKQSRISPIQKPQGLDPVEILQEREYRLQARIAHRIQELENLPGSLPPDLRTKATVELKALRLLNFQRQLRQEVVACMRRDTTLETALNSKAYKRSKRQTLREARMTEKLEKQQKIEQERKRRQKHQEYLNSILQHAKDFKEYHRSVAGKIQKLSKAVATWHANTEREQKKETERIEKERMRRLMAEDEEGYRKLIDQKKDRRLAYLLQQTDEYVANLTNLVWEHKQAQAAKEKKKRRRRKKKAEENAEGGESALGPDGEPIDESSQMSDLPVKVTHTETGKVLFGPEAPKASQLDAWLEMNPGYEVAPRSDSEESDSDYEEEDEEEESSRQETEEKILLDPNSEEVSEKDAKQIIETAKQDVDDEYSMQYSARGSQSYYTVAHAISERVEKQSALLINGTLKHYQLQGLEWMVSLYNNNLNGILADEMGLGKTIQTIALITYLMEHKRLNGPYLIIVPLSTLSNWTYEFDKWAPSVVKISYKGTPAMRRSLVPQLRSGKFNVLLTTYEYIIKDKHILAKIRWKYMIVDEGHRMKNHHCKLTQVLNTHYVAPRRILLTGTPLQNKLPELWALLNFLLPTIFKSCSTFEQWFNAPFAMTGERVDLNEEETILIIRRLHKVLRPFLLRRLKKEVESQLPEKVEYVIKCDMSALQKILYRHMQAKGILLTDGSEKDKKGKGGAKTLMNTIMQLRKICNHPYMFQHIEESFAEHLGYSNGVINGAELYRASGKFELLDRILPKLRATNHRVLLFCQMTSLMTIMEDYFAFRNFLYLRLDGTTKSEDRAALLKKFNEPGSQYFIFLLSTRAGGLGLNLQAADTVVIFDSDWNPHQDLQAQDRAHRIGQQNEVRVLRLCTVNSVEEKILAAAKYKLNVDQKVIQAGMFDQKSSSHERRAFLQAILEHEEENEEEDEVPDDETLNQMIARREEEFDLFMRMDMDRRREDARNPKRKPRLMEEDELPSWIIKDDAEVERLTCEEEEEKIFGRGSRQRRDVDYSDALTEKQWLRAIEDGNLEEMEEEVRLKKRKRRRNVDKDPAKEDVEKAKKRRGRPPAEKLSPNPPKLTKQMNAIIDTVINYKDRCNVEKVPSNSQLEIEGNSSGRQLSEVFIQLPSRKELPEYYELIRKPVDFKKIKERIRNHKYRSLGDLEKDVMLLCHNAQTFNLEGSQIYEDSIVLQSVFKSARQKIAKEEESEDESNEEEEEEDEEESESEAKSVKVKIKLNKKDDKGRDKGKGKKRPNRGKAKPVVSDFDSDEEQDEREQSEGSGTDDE
Procedure: as §2
Xenograft samples were fixed in 10% formaldehyde for 24 h and later moved to ethanol and embedded in paraffin. 2 µm-thick sections were cut using a microtome, then placed on glass slides ([…], silan printer slides PR-S:001), and subsequently dewaxed. SMARCA2 immunohistochemistry was carried out on the Leica BOND RX platform (Leica Biosystems) according to manufacturer’s instructions using a human-specific SMARCA2 antibody (Cell Signalling #11966 clone D9E8B RRID:AB_2797783 1:400) where the tissue underwent a heat-induced epitope retrieval for 20 min. After staining, the slides were cover-slipped with Shandon Consul-Mount glass covers, scanned using a slide scanner (3D HISTECH Ltd.). All slides were reviewed and evaluated for quality by a board-certified MD specialist in Anatomic Pathology (PC). Imaging analysis was performed using the digital pathology platform HALO (Indica Labs). A tissue-classifying algorithm was trained to selectively recognise viable tumour tissue against stroma, necrosis, and skin. The tissue classification output for each scan was reviewed and manually edited as necessary. A cell detection and scoring algorithm was trained to measure DAB optical density (OD) in the nuclei of tumour cells. A positivity threshold for DAB OD was determined by normalisation with respect to the DAB OD as calculated from bona fide negative tissue (e.g. murine stroma as background). The average, background-normalised DAB OD of tumour cell nuclei was used to quantitate SMARCA2 expression in each xenograft sample.

[3] = Caco-2, pH 7.4, Caco-2, b to a, read-out: Caco-2 Pba
[4] = Caco-2, pH 7.4, Caco-2, read-out: Caco-2 Efflux ratio
[5] = Caco-2, pH 7.4, Caco-2, read-out: Caco-2 Pab
[6] = Caco-2, pH 7.4, Modified Caco-2, b to a, read-out: Modified Caco-2 Pba
[7] = Caco-2, pH 7.4, Modified Caco-2, read-out: Modified Caco-2 Efflux ratio
[8] = Caco-2, pH 7.4, Modified Caco-2, read-out: Modified Caco-2 Pab
[9] = NCI-H1568 xenograft, 30 mg/kg po, qd, end of study, individual tumours, 30 mg/kg
[10] = NCI-H1568 xenograft, 100 mg/kg, PO, 48 h, individual tumours

Row | SMILES | Papp B→A at 1 µM [1, 3] | efflux ratio at 2 h, 1 µM [1, 4] | Papp A→B at 1 µM [1, 5] | Papp A→B at 1 µM [1, 8] | Papp B→A at 2 h, 1 µM (P-gp) | further results
1 | CN1CCC(c2ccc3c(c2)n(C2CCCC2)c2nc(=O)c4c(Br)cccc4n32)CC1 [compound 3] | 21.7 ×10⁻⁶ cm/s | 0.768 | 28 ×10⁻⁶ cm/s | – | – | –
2 | Cc1ncsc1-c1ccc([C@H](CC[C@H](C)CCN2CCC(c3ccc4c(c3)n(C3CCCC3)c3nc(=O)c5c(Br)cccc5n43)CC2)NC(=O)[C@@H]2C[C@H](O)CN2C(=O)[C@@H](NC(=O)C2(F)CC2)C(C)(C)C)cc1 [compound 12] | 8.5 ×10⁻⁶ cm/s | – | – | – | – | Papp A→B at 1 µM ([1]; Caco-2, pH 7.4, Caco-2, a to b, read-out: Caco-2 Pab): 3.4 ×10⁻⁶ cm/s
3 | Cc1ncsc1-c1ccc([C@H](COC(C)CN2CCC(c3ccc4c(c3)n(C3CCCC3)c3nc(=O)c5c(Br)cccc5n43)CC2)NC(=O)[C@@H]2C[C@@H](O)CN2C(=O)[C@@H](NC(=O)C2(N(C)C)CC2)C(C)(C)C)cc1 (some centres unmarked) [compound 10] | 26 ×10⁻⁶ cm/s | 4.64 | – | < 1 ×10⁻⁶ cm/s | – | Papp B→A at 1 µM [1, 6]: 69 ×10⁻⁶ cm/s; efflux ratio at 2 h, 1 µM [1, 7]: 36.3
4 | Nc1cccc2c1c(=O)nc1n(C3CCCC3)c3ccccc3n21 [compound 2] | 17 ×10⁻⁶ cm/s | 0.459 | 37 ×10⁻⁶ cm/s | – | – | –
5 | O=c1nc2n(C3CCCC3)c3ccccc3n2c2cccc(Br)c12 [compound 1] | 23.9 ×10⁻⁶ cm/s | 0.774 | 31 ×10⁻⁶ cm/s | – | – | –
6 | Cc1ncsc1-c1ccc([C@H](CCCCCN2CCC(c3ccc4c(c3)n(C3CCCC3)c3nc(=O)c5c(Br)cccc5n43)CC2)NC(=O)[C@@H]2C[C@@H](O)CN2C(=O)[C@@H](NC(=O)C2(F)CC2)C(C)(C)C)cc1 [compound 11] | – | – | 1.4 ± 0.5 ×10⁻⁶ cm/s | 6 ± 3 ×10⁻⁶ cm/s | 24 ×10⁻⁶ cm/s | tolerability ([2]; NCI-H1568 xenograft efficacy study, body weight changes): well tolerated; SMARCA2 levels in tumours at the end of the efficacy study, IHC (SMARCA2; NCI-H1568 xenograft): undetectable by IHC in most treated tumour samples; also recorded: below the limit of detection; SMARCA2 (OD, normalised) (SMARCA2; [9]): 0.00000 and 0.00917; SMARCA2 Nuclear OD (SMARCA2; [9]): 0.03172 and 0.04361 and 0.06213 and 0.0483; median decrease of SMARCA2 levels in viable tumour tissue compared to vehicle (SMARCA2; NCI-H1568 xenograft, 100 mg/kg p.o., 48 h after treatment): 89%; SMARCA2 (OD, normalised) (SMARCA2; NCI-H1568 xenograft, 100 mg/kg po, qd, end of study, individual tumours): 0.00000; SMARCA2 Nuclear OD (SMARCA2; NCI-H1568 xenograft, 100 mg/kg po, qd, end of study, individual tumours, 100 mg/kg): 0.03159 and 0.03653 and 0.04664 and 0.03486; Avg Stain 1 Nuclear OD (SMARCA2 IHC) (SMARCA2; [10]): 7.84E-02 and 7.05E-02 and 6.17E-02 and 6.89E-02; Normalised SMARCA2 (OD) (SMARCA2; [10]): 0.04325 and 0.03531 and 0.02651 and 0.03377
7 | Cc1ncsc1-c1ccc([C@H](COCCN2CCC(c3ccc4c(c3)n(C3CCCC3)c3nc(=O)c5c(Br)cccc5n43)CC2)NC(=O)[C@@H]2C[C@@H](O)CN2C(=O)[C@@H](NC(=O)C2(N(C)C)CC2)C(C)(C)C)cc1 [compound 26] | 15.4 ×10⁻⁶ cm/s | – | < 3 ×10⁻⁶ cm/s | – | – | –
8 | Cc1ncsc1-c1ccc(C(CCC(C)CCN2CCC(c3ccc4c(c3)n(C3CCCC3)c3nc(=O)c5c(Br)cccc5n43)CC2)NC(=O)C2CC(O)CN2C(=O)C(NC(=O)C2(F)CC2)C(C)(C)C)cc1 (centres unmarked) [ACBI2] | – | – | 2 ± 0.2 ×10⁻⁶ cm/s | 9 ± 9 ×10⁻⁶ cm/s | 11 ×10⁻⁶ cm/s | Papp A→B at 1 µM (P-gp): 8 ± 4 ×10⁻⁶ cm/s; tolerability ([2]; A549 xenograft, 80 mg/kg p.o. once daily): well tolerated; SMARCA2 (OD, normalised) (SMARCA2; 5 mg/kg, 48h, background OD 0.03518 subtracted, individual tumours): 0.2432 and 0.2157 and 0.2065 and 0.129 and 0.1815; SMARCA2 Nuclear OD (SMARCA2; 5 mg/kg, 48h, individual tumours): 0.2784 and 0.2509 and 0.2416 and 0.1642 and 0.2166; SMARCA2 (OD, normalised) (SMARCA2; 20 mg/kg, 24h, background OD 0.03518 subtracted, individual tumours): 0.05875 and 0.05583 and 0.06456 and 0.06581; SMARCA2 Nuclear OD (SMARCA2; 20 mg/kg, 24h, individual tumours): 0.09393 and 0.09101 and 0.09973 and 0.101; SMARCA2 (OD, normalised) (SMARCA2; 20 mg/kg, 48h, background OD 0.03518 subtracted, individual tumours): 0.06607 and 0.09312 and 0.06031 and 0.01981; SMARCA2 Nuclear OD (SMARCA2; 20 mg/kg, 48h, individual tumours): 0.1013 and 0.1283 and 0.09549 and 0.05499; SMARCA2 (OD, normalised) (SMARCA2; 100 mg/kg, 48h, background OD 0.03518 subtracted, individual tumours): 0.01021 and 0.00729 and 0.00935 and 0.01389 and 0.01189; SMARCA2 Nuclear OD (SMARCA2; 100 mg/kg, 48h, individual tumours): 0.04539 and 0.04246 and 0.04453 and 0.04906 and 0.04706
9 | Cc1ncsc1-c1ccc([C@H](COC(C)CN2CCC(c3ccc4c(c3)n(C3CCCC3)c3nc(=O)c5c(Br)cccc5n43)CC2)NC(=O)[C@@H]2C[C@@H](O)CN2C(=O)[C@@H](NC(=O)C2(F)CC2)C(C)(C)C)cc1 (some centres unmarked) [compound 9] | 34 ×10⁻⁶ cm/s | – | 6 ± 2 ×10⁻⁶ cm/s | 4 ± 2 ×10⁻⁶ cm/s | 19 ×10⁻⁶ cm/s | Papp B→A at 1 µM [1, 6]: 170 ×10⁻⁶ cm/s; efflux ratio at 2 h, 1 µM [1, 7]: 44.8; Papp A→B at 1 µM (P-gp): 12 ± 2 ×10⁻⁶ cm/s
